{
  "source": "patent US11931429B2",
  "about": "“Chemiluminescent probes for diagnostics and in vivo imaging” (RAMOT AT TEL-AVIV UNIVERSITY LTD., priority 2016, dated 2024)",
  "key": {"β-galactosidase [1]": {"system": "β-galactosidase", "description": "Spectra were recorded in PBS (100 mM), pH 7.4, in the presence of 1.5 units/mL β-galactosidase (continuous lines). Dotted line is the fluorescence emission spectrum (DCL—direct chemiluminescence).\nFluorescence and chemiluminescence were recorded on Molecular Devices Spectramax i3x.\nChemiluminescence parameters measured for Probes 1, 2 and 3 and their ability to detect and image β-galactosidase. Next, we measured the light emission of the probes, as a function of time, in the presence and in the absence of β-galactosidase.\nThe chemiluminescence quantum yield (ϕCL) of probes 2 and 3 was calculated using that of Probe 1 as a known standard (Edwards et al., 1994)."}, "[2]": {"assay": "Light-induced decomposition under normal room illumination, monitored by RP-HPLC", "type": "physicochemical", "conditions": "PBS pH 7.4, normal room illumination", "procedure": "Probes (300 μM) were incubated in PBS (100 mM), pH 7.4, at ambient temperature.\nLight-induced decomposition of dioxetane-dye conjugates. While working on the synthesis of the dioxetane-fluorophore conjugates, we encountered an unexpected phenomenon. Although Probe 1 seemed to be photostable, Probes 2 and 3 appeared to decompose under normal room illumination conditions. We measured the photostability of the probes in aqueous solution (PBS, pH 7.4) under normal room illumination. The light-induced decomposition was monitored over several hours by a RP-HPLC assay (FIG. 2)."}, "β-galactosidase [3]": {"system": "β-galactosidase", "conditions": "Probe 1, known standard (Edwards et al., 1994); cited from earlier work"}},
  "note": "Entries after “also recorded” stand apart in the source; their conditions may differ.",
  "data": [
    {"smiles": "COC1(c2cccc(O[C@@H]3OC(CO)[C@H](O)[C@H](O)C3O)c2Cl)OOC12C1CC3CC(C1)CC2C3", "note": "(stereo partly shown) [Probe 1, reference compound]", "values": [
      {"measurement": "λmax [nm] (chemiluminescence emission)", "setting": "β-galactosidase [1]; 1 μM, PBS (100 mM) pH 7.4, 1.5 units/mL β-galactosidase", "result": 470, "unit": "nm"},
      {"measurement": "Relative ΦCL", "setting": "β-galactosidase [1]; relative to Probe 1", "result": 1},
      {"measurement": "photostability under normal room illumination", "setting": "[2]", "result": "photostable; also recorded: unaffected by light"},
      {"measurement": "ΦCL (chemiluminescence quantum yield)", "setting": "β-galactosidase [3]", "result": "3.3 × 10^−5"}
    ]}
  ]
}
